Converted amounts (≈) assume the structure as drawn. “And” between values parts separate entries of the source, which are not always exact repeats. Equal entries are not always repeated. “Also recorded” adds a separate entry of the source. Where two headings read alike, the source gives them in different places.
Legend:
[1] = biological target: T1, human DNA ligase 1 (hLig1) (Homo sapiens, UniProt P18858); experiment: DNA ligation assay with various hLig1 concentration at constant inhibitor concentration; format: biochemical; settings: 30 min 37 °C; for DNA product formation: 10 µM compound, three replicates
T1 construct: made in house; host or cells: E. coli Rosetta BL21 (DE3), pET28a-hLig1
T1 sequence (P18858 whole entry): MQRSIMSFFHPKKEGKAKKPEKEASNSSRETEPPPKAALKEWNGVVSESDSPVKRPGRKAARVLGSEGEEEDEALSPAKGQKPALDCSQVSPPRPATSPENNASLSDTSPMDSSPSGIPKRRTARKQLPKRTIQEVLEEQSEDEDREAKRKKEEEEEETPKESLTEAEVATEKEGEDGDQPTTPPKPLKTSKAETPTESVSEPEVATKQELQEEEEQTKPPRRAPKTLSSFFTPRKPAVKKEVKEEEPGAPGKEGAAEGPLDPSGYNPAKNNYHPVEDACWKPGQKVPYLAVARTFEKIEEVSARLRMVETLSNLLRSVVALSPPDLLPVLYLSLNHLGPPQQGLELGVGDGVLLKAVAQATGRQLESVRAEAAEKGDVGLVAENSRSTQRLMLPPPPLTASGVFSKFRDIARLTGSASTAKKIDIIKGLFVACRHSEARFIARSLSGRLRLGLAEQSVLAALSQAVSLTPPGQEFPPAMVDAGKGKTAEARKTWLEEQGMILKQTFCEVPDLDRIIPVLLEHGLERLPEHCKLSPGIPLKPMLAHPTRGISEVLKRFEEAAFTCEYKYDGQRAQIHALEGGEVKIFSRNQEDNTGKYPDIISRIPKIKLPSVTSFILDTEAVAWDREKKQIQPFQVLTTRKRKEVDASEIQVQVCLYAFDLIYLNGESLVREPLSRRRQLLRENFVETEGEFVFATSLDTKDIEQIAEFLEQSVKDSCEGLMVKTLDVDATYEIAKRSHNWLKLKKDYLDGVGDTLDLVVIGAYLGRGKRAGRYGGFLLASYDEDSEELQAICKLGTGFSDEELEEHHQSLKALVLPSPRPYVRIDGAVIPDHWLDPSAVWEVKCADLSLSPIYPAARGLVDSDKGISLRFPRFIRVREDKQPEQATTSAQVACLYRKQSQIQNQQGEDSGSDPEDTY

Rlig1-AMP [2] = biological target: T2, Rlig1-AMP (Homo sapiens, UniProt Q8N999); experiment: Radioactive RNA ligation assay (hit validation, 10 µM test and IC50 determination); format: biochemical; settings: for inhibition of Rlig1-AMP ligation (urea-PAGE): 10 μM compound; for IC50: n = 3; for percentage inhibition (dose response curve for IC50): replicates I-III; for LogIC50 (best-fit value): log of µM; for Bottom (best-fit value) / Top (best-fit value): log(inhibitor) vs. response, variable slope (four parameters)
T2 construct: made in house; host or cells: E. coli BL21 (DE3), pET15b-Rlig1
T2 sequence (Q8N999 whole entry): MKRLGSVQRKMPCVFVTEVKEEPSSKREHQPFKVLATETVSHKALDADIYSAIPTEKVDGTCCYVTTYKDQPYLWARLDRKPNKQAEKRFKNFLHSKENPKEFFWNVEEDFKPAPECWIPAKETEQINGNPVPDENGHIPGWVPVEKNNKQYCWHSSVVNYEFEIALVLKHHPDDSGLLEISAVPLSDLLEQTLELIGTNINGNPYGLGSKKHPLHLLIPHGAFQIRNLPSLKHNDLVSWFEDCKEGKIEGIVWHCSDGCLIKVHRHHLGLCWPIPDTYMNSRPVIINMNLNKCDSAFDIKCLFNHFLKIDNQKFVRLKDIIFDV

HEK293 cells = experiment: Cell viability assay of HEK293 cells treated with inhibitors (CellTiter-Glo); settings: for cytotoxicity (in words): HEK293, 24 h, up to 30 μM; for EC50: HEK293, 24 h compound, highest concentration 30 μM, n = 3; for IC50 (Figure 3D: EC50 values for plot; log(inhibitor) vs. response -- Variable slope (four parameters)) / LogIC50 (log(inhibitor) vs. response -- Variable slope (four parameters)): HEK293 cell viability, fit per plate (3 plates, 4 technical replicates each); for IC50 (Figure 3D: EC50 values for plot; log(inhibitor) vs. response -- Variable slope (four parameters)): highest tested concentration 30 µM; for LogIC50 (log(inhibitor) vs. response -- Variable slope (four parameters)): log of [µM]
Rlig1-AMP [3] = biological target: T2, Rlig1-AMP; experiment: FRET-based high-throughput screening of inhibitors for Rlig1-AMP; format: biochemical; settings: for Raw data [w Enyzm]: with enzyme; for Raw data [w/o Enzym]: without enzyme
[4] = DMSO; ref MedChemExpress; cited from earlier work
[5] = ref MedChemExpress, cited from earlier work
[6] = ultrasonic/warming, ref MedChemExpress, cited from earlier work
[7] = ref MedChemExpress, cited from earlier work; remark: listed apart in the source
[8] = four-parameter fit, read-out: IC50 (best-fit value)
[9] = radioactive ligation assay, 500 nM Rlig1-AMP, 20 min 37 °C, read-out: IC50
[10] = HTS hits, difference of raw data w/o and w enzyme
[11] = HTS hits, normalized value (npi)

With `Nc1nc(Nc2ccc(NC(=O)c3ccc(Nc4ccnc5ccccc45)cc3)cc2)cc(C(F)(F)F)n1` [Compound 41] the “effect on hLig1 activity (in words)” value ([1]; 10 μM compound, hLig1 titrated (500 nM to 31.3 nM)) was “least impact on hLig1 activity”, the DNA product formation ([1]; hlig1 0.0315 µM) was 32.8195% and 34.8543% and 48.0642% and the DNA product formation ([1]; hlig1 0.0625 µM) was 59.0993% and 56.4484% and 66.8349%. The DNA product formation ([1]; hlig1 0.5 µM) was 87.3568% and 90.1164% and 79.5057%, the “inhibition of Rlig1-AMP ligation (urea-PAGE)” value (Rlig1-AMP [2]; 500 nM Rlig1-AMP, 20 min 37 °C) was “Ligation was inhibited; also recorded: fully inhibited” and the “HillSlope (best-fit value)” value (Rlig1-AMP [2]; four-parameter fit) was 6.706. For the same compound, the “Span (best-fit value)” value (Rlig1-AMP [2]; four-parameter fit) was 91.68, the IC50 (Rlig1-AMP [2]; [8]) was 7.98 µM and the “percentage inhibition (dose response curve for IC50)” value (“percentage inhibition” below) (Rlig1-AMP [2]; log Compound [µM] 0.273001) was 1.895 and 15.4708 and 0.5134. For the same compound, the “percentage inhibition” value (Rlig1-AMP [2]; log Compound [µM] 0.574031) was 11.1208 and 11.2726 and 0, the “percentage inhibition” value (Rlig1-AMP [2]; log Compound [µM] 0.875061) was 30.9538 and 51.1087 and 45.619 and the “percentage inhibition” value (Rlig1-AMP [2]; log Compound [µM] 1.17609) was 95.8601 and 98.8258 and 95.9476. The “percentage inhibition” value (Rlig1-AMP [2]; log Compound [µM] 1.47712) was 93.067 and 100 and 99.7336, the “percentage inhibition” value (Rlig1-AMP [2]; log Compound [µM] -0.0280287) was 9.18 and 3.83 and 4.351 and the “percentage inhibition” value (Rlig1-AMP [2]; log Compound [µM] -0.329059) was 8.319 and 4.077 and 3.842. For the same compound, the “percentage inhibition” value (Rlig1-AMP [2]; log Compound [µM] -0.630089) was 9.025 and 10.4021 and 1.823, the “LogIC50 (best-fit value)” value (Rlig1-AMP [2]; four-parameter fit) was 0.9022 and the “Bottom (best-fit value)” value (Rlig1-AMP [2]) was 6.221. For the same compound, the “Top (best-fit value)” value (Rlig1-AMP [2]) was 97.9, the IC50 (Rlig1-AMP [2]; [9]) was 7.98 µM and the “cytotoxicity (in words)” value (HEK293 cells) was “comparatively high cytotoxicity”. The EC50 (HEK293 cells) was 5.59 µM, the “IC50 (Figure 3D: EC50 values for plot; log(inhibitor) vs. response -- Variable slope (four parameters))” value (HEK293 cells) was 5.211 µM and 5.311 µM and 6.697 µM and the “LogIC50 (log(inhibitor) vs. response -- Variable slope (four parameters))” value (HEK293 cells) was 0.717 and 0.7252 and 0.8259.

In the case of `CNc1nccc(Nc2ccc(NC(=O)c3ccc(Nc4ccnc5ccccc45)cc3)cc2)n1` [Compound 42], the DNA product formation ([1]; hlig1 0.0315 µM) is reported as 8.9605% and 14.7712% and 28.5706%, the DNA product formation ([1]; hlig1 0.0625 µM) is reported as 20.859% and 38.2979% and 41.6376% and the DNA product formation ([1]; hlig1 0.5 µM) is reported as 72.119% and 74.3311% and 77.4812%. The “inhibition of Rlig1-AMP ligation (urea-PAGE)” value (Rlig1-AMP [2]; 500 nM Rlig1-AMP, 20 min 37 °C) was “Ligation was inhibited; also recorded: fully inhibited”, the “HillSlope (best-fit value)” value (Rlig1-AMP [2]; four-parameter fit) was 5.584 and the “Span (best-fit value)” value (Rlig1-AMP [2]; four-parameter fit) was 91.59. For the same compound, the IC50 (Rlig1-AMP [2]; [8]) was 3.29 µM, the “percentage inhibition” value (Rlig1-AMP [2]; log Compound [µM] 0.273001) was 16.0159 and 7.852 and 10.1751 and the “percentage inhibition” value (Rlig1-AMP [2]; log Compound [µM] 0.574031) was 79.3655 and 83.1907 and 44.7582. The “percentage inhibition” value (Rlig1-AMP [2]; log Compound [µM] 0.875061) was 100 and 98.6279 and 97.3725, the “percentage inhibition” value (Rlig1-AMP [2]; log Compound [µM] 1.17609) was 100 (2×) and 92.704 and the “percentage inhibition” value (Rlig1-AMP [2]; log Compound [µM] 1.47712) was 100. The “percentage inhibition” value (Rlig1-AMP [2]; log Compound [µM] -0.0280287) was 9.717 and 4.5039 and 9.184, the “percentage inhibition” value (Rlig1-AMP [2]; log Compound [µM] -0.329059) was 6.426 and 0 and 5.66 and the “percentage inhibition” value (Rlig1-AMP [2]; log Compound [µM] -0.630089) was 11.6754 and 8.294 and 11.6155. For the same compound, the “LogIC50 (best-fit value)” value (Rlig1-AMP [2]; four-parameter fit) was 0.5177, the “Bottom (best-fit value)” value (Rlig1-AMP [2]) was 7.458 and the “Top (best-fit value)” value (Rlig1-AMP [2]) was 99.05. For the same compound, the IC50 (Rlig1-AMP [2]; [9]) was 3.29 µM, the “cytotoxicity (in words)” value (HEK293 cells) was “comparatively high cytotoxicity” and the EC50 (HEK293 cells) was 3.51 µM. The “IC50 (Figure 3D: EC50 values for plot; log(inhibitor) vs. response -- Variable slope (four parameters))” value (HEK293 cells) was 3.237 µM and 3.382 µM and 4.036 µM and the “LogIC50 (log(inhibitor) vs. response -- Variable slope (four parameters))” value (HEK293 cells) was 0.5101 and 0.5292 and 0.6059.

With `Cc1cnc(NCCCN(C)C)c2c1[nH]c1ccc3cc(O)ccc3c12` [Intoplicine] the “1-D Distance” value (Rlig1-AMP [3]; HTS hits, difference of raw data without and with enzyme) was 1659, the “Raw data [w Enyzm]” value (Rlig1-AMP [3]; HTS hits) was 6875 and the “Raw data [w/o Enzym]” value (Rlig1-AMP [3]; HTS hits) was 8534. For the same compound, the solubility [4] was 80 mg/mL and 229.59 mM.

For `O=C1c2ccccc2-c2nc3nnnn3nc21.O=C1c2ccccc2-c2nn3nnnc3nc21` [KP372-1], the “1-D Distance” value (Rlig1-AMP [3]; [10]) was 385, the “1-D Distance.npi” value (Rlig1-AMP [3]; [11]) was 99.8878 and the “Raw data [w Enyzm]” value (Rlig1-AMP [3]; HTS hits) was 14308. The “Raw data [w/o Enzym]” value (Rlig1-AMP [3]; HTS hits) was 13923 and the solubility ([5]; DMSO) was 17.86 mg/mL and 39.83 mM.

In the case of `CCn1c(=O)/c(=C2\Sc3ccccc3N2C)s/c1=C\c1cccc[n+]1CC.[Cl-]` [MKT-077], the “1-D Distance” value (Rlig1-AMP [3]; [10]) is reported as 170, the “1-D Distance.npi” value (Rlig1-AMP [3]; [11]) is reported as 104.232 and the “Raw data [w Enyzm]” value (Rlig1-AMP [3]; HTS hits) is reported as 657. The “Raw data [w/o Enzym]” value (Rlig1-AMP [3]; HTS hits) was 827, the solubility ([5]; DMSO) was 56.67 mg/mL and 131.18 mM and the solubility ([5]; H2O) was less than 0.1 mg/mL.

In the case of `O=C1c2ccccc2C(=O)c2c1cc(S(=O)(=O)Nc1ccc(C(F)(F)F)cc1)c(O)c2O` [PGMI-004A], the “1-D Distance” value (Rlig1-AMP [3]; [10]) is reported as 1480, the “1-D Distance.npi” value (Rlig1-AMP [3]; [11]) is reported as 78.7935 and the “Raw data [w Enyzm]” value (Rlig1-AMP [3]; HTS hits) is reported as 2222. The solubility ([5]; DMSO) was ≥ 125 mg/mL and ≥ 269.76 mM.

In the case of `Cc1[nH]c(/C=C2\C(=O)Nc3ccc(S(=O)(=O)Cc4c(Cl)cccc4Cl)cc32)c(C)c1C(=O)N1CCC[C@@H]1CN1CCCC1` [PHA-665752], the “1-D Distance” value (Rlig1-AMP [3]; [10]) is given as 1429, the “Raw data [w Enyzm]” value (Rlig1-AMP [3]; HTS hits) is given as 5362 and the solubility ([5]; DMSO) is given as 50 mg/mL and 77.93 mM.

For `COc1cccc2c1C(=O)c1c(O)c3c(c(O)c1C2=O)C[C@@](O)(C(=O)CO)C[C@@H]3O[C@H]1C[C@H](N)[C@H](O[C@@H]2CCCCO2)[C@H](C)O1.Cl` [Pirarubicin (Hydrochloride)], the “1-D Distance” value (Rlig1-AMP [3]; [10]) was 1020, the “1-D Distance.npi” value (Rlig1-AMP [3]; HTS hits, normalised value of 1-D Distance) was 86.4182 and the “Raw data [w Enyzm]” value (Rlig1-AMP [3]; HTS hits) was 2238. The “Raw data [w/o Enzym]” value (Rlig1-AMP [3]; HTS hits) was 3258, the “solubility, DMSO” value ([6]; DMSO) was 20.83 mg/mL and 31.37 mM and the “solubility, H2O” value ([6]; H2O) was less than 100 µg/mL.

In the case of `CO[C@H]1/C=C/O[C@@]2(C)Oc3c(C)c(O)c4c(O)c(c(/C=N/N5CCN(C)CC5)c(O)c4c3C2=O)NC(=O)/C(C)=C\C=C\[C@H](C)[C@H](O)[C@@H](C)[C@@H](O)[C@@H](C)[C@H](OC(C)=O)[C@@H]1C` [Rifampicin], the “solubility, DMSO” value ([7]; in DMSO) is given as 50000 µg/mL (≈ 60.8 mM), the “solubility, H2O” value ([7]; in H2O) is given as 1000 µg/mL (≈ 1.22 mM) and the “1-D Distance” value (Rlig1-AMP [3]; sheet HTS hits, difference of raw data w/o and w enzyme) is given as 268. For the same compound, the “Raw data [w Enyzm]” value (Rlig1-AMP [3]; sheet HTS hits) was 2212 and the “Raw data [w/o Enzym]” value (Rlig1-AMP [3]; sheet HTS hits) was 2480.

Reference: publication PMC11747885, “Potent inhibitors of the human RNA ligase Rlig1 highlights its role in RNA integrity maintenance under oxidative cellular stress” (Chemical Science, 2025)
